Reference: patent US20260166121A1, “COMPOSITIONS AND METHODS FOR THE TREATMENT OF HEMORRHAGIC SHOCK” (Children's Hospital Medical Center, priority 2022, published 2026)
Ends that are not written are not given here.

Test system: AMPKα1 wild-type (WT) and knockout (KO) mice
Experiment: Survival analysis up to 7 days after hemorrhagic shock
Type: in vivo
Conditions: 100 μg/kg intra-arterially at resuscitation, subcutaneously at 24 h and 48 h, compared to vehicle treatment
Protocol: Preparation of PEGylated humanin-G and survival analysis. In separate groups of mice survival studies were conducted. For these studies, we generated a longer-acting humanin-G by covalent conjugation of polyethylene glycol (PEG). Briefly, humanin-G was conjugated (1:1 molar ratio) to generate a non-cleavable PEGylated humanin-G. Humanin-G was dissolved in phosphate-buffered saline, pH 7.4, with 5 mM EDTA and mixed at room temperature with an equal volume of DMSO containing PEG-maleimide and left overnight (26). The product, PEGylated humanin-G (PEG10 kDa) was purified by size-exclusion chromatography with a 50 mM ammonium acetate buffer. Mice were subjected to hemorrhagic shock as described above. Mice received PEGylated humanin-G (100 μg/kg, intra-arterially) as a single dose at 90 minutes after blood removal at the time of resuscitation. Three hours after resuscitation, the femoral artery was occluded, and the skin incision was closed in layers. Mice were then allowed to awaken from anesthesia. Mice then received a second and a third dose of PEGylated humanin-G (100 μg/kg, subcutaneously) at 24 hours and 48 hours thereafter. Mice also received further fluid resuscitation (0.5 mL of Lactated Ringer's solution subcutaneously) at 6 hours and 24 hours following hemorrhagic shock. […] Mice were then monitored for survival for 7 days. […]

PEGylated humanin-G: non-cleavable PEGylated humanin-G, humanin-G conjugated 1:1 molar ratio with PEG-maleimide (PEG10 kDa) (MAPRGFSCLLLLTGEIDLPVKRRA; not fully specified (residue 8); also: PEG 10 kDa maleimide conjugate, attachment site not given here; UniProt Q8IVG9 1-24, looked up, variant S14G)
survival: significantly ameliorated
